From patent US11325900B2, “5-(pyrimidin-4-yl)thiazol-2-yl urea derivatives as therapeutic agents” (AUCENTRA HOLDINGS PTY LTD, priority 2018, dated 2022) come the findings set out here.

Bounds are passed on as bounds.

One assay addresses T1, CDK8/CycC (Homo sapiens, UniProt P49336).
T1 construct: purchased ProQinase GmbH, Freiburg, Germany
As to the kind of experiment: Radiometric protein kinase assay (33PanQinase Activity Assay, ProQinase). Type of assay: biochemical. Particulars: 1.0 μM ATP, 1.0 μg/50 μL substrate RBER-IRStide, duplicate measurements, read-out: CDK8 Kinase inhibition IC50. The protocol:
The kinase activity of CDK8/CycC was measured using a radiometric protein kinase assay (33PanQinase® Activity Assay) by ProQinase GmbH, Freiburg, Germany, with the protocols shown at www.proqinase.com/sites/default/files/public/uploads/WildtypeProfiler/radiometric_assay_v05_2012_manual.pdf. IC50 determination (8.3 nM with 1.0 μM ATP and 1.0 μg/50 μL of substrate RBER-IRStide) was performed as duplicate measurements and calculated using Quattro Workflow V3.1.1 (Quattro Research GmbH, Germany). Apparent inhibition constants (Ki) values were calculated from Km (ATP) and IC50 values for the respective kinases.

The next assay relates to HCT-116. As to the kind of experiment: Cell viability assay (MTT, solid tumour cell lines), 72 h growth inhibition. Type of assay: cell-based. The note with it: Homo sapiens, HCT-116 cells. From the text: (§1) Compounds from Example 1 may be subjected to a standard MTT (3-(4,5-dimethylthiazol-2-yl)-2,5-diphenyltetrazolium bromide) and resazurin assays on solid tumour cell lines and leukemia cell lines, respectively, as previously reported (Wang S et al., J Med Chem 47:1662-1675, 2004 and Diab S e al. CheMedChem 9:962-972, 2014). Compound concentrations required to inhibit 50% of cell growth (GI50) can be calculated using non-linear regression analysis.

For the next assay, the system named is MV-4-11. As to the kind of experiment: Cell viability assay (resazurin, leukemia cell lines), 72 h growth inhibition. Type of assay: cell-based. Particulars: Homo sapiens, MV4-11, MV-4-11 cells.
Text: as §1

T1 sequence (P49336 whole entry): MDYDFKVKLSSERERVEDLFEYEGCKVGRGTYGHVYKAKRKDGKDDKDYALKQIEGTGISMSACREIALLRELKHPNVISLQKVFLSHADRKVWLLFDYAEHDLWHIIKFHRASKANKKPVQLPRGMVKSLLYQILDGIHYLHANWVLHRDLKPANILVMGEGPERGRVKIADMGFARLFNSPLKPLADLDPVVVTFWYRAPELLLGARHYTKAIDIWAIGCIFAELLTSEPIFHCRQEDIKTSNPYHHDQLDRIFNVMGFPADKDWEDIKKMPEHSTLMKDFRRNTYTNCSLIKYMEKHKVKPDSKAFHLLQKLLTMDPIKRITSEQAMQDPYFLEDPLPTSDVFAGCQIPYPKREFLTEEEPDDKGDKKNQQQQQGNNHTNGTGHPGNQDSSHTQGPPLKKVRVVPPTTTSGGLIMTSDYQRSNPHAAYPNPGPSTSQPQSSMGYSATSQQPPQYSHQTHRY
T1 sequence (P24863 whole entry partner): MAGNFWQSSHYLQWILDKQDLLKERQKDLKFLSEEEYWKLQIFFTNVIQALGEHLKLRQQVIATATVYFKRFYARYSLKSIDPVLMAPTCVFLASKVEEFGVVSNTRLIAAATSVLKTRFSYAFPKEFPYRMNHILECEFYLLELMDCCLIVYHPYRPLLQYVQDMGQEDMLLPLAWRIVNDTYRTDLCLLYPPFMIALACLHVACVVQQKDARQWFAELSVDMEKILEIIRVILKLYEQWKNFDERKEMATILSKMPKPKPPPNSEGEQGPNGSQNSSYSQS

As to `CNc1nccc(-c2sc(NC(=O)Nc3ccccc3)nc2C)n1` [Compound 1, 1-(4-Methyl-5-(2-(methylamino)pyrimidin-4-yl)thiazol-2-yl)-3-phenylurea], the IC50 at CDK8/CycC was 36 nM. The GI50 worked out at 1510 ± 60 nM in the assay with HCT-116 and 639 ± 120 nM in the assay on MV-4-11.

With `CNc1nccc(-c2sc(NC(=O)Nc3ccccc3F)nc2C)n1` [Compound 3, 1-(2-Fluorophenyl)-3-(4-methyl-5-(2-(methylamino)pyrimidin-4-yl)thiazol-2-yl)urea], at CDK8/CycC, the IC50 was found to be 42 nM. Besides, the GI50 in the assay with HCT-116 was 1590 ± 60 nM; with MV-4-11 it was 952 ± 200 nM.

Take `CNc1nccc(-c2sc(NC(=O)Nc3ccc(C)cc3)nc2C)n1` [Compound 44, 1-(4-Methyl-5-(2-(methylamino)pyrimidin-4-yl)thiazol-2-yl)-3-(p-tolyl)urea]: at CDK8/CycC, the IC50 amounted to 7 nM. The results for the GI50 with HCT-116 and in the assay with MV-4-11 were 2370 ± 50 nM and 2600 ± 460 nM, respectively.

`CNc1nccc(-c2sc(NC(=O)Nc3ccc(OC)cc3)nc2C)n1` [Compound 45, 1-(4-Methoxyphenyl)-3-(4-methyl-5-(2-(methylamino)pyrimidin-4-yl)thiazol-2-yl)urea]: the IC50 on CDK8/CycC came to 11 nM. The figures for the GI50 in the assay with HCT-116 and in the assay on MV-4-11 were 3040 ± 530 nM and 756 ± 120 nM, respectively.

On to `CNc1nccc(-c2sc(NC(=O)Nc3cccc(Br)c3)nc2C)n1` [Compound 12, 1-(3-Bromophenyl)-3-(4-methyl-5-(2-(methylamino)pyrimidin-4-yl)thiazol-2-yl)urea], for which the IC50 on CDK8/CycC stood at 7 nM. The GI50 with HCT-116 is 6400 ± 270 nM; in the assay with MV-4-11, 2110 ± 1640 nM.

In the case of `CNc1nccc(-c2sc(NC(=O)Nc3ccc(C(F)(F)F)c(Cl)c3)nc2C)n1` [Compound 5, 1-(3-Chloro-4-(trifluoromethyl)-phenyl)-3-(4-methyl-5-(2-(methylamino)pyrimidin-4-yl)thiazol-2-yl)urea], the IC50 on CDK8/CycC is 25 nM. In addition, the GI50 amounted to 7100 ± 960 nM in the assay with HCT-116 and 3810 ± 580 nM in the assay with MV-4-11.

For `CNc1nccc(-c2sc(NC(=O)Nc3ccccc3OC)nc2C)n1` [Compound 4, 1-(2-Methoxyphenyl)-3-(4-methyl-5-(2-(methylamino)pyrimidin-4-yl)thiazol-2-yl)urea], on CDK8/CycC, the IC50 was determined as 49 nM. Besides, the 50% growth inhibitory concentration (GI50) came to 537 ± 140 nM with HCT-116 and 457 ± 180 nM with MV-4-11.

For the compound `CNc1nccc(-c2sc(NC(=O)Nc3cccc(C#N)c3)nc2C)n1` [Compound 15, 1-(3-Cyanophenyl)-3-(4-methyl-5-(2-(methylamino)pyrimidin-4-yl)thiazol-2-yl)urea], the half-inhibitory concentration (IC50) on CDK8/CycC is 8 nM. The GI50 in the assay on HCT-116 is 6250 ± 610 nM; with MV-4-11, 565 ± 40 nM.

As to `Cc1nc(NC(=O)Nc2cccc(C(F)(F)F)c2)sc1-c1ccnc(N)n1` [Compound 51, 1-(5-(2-Aminopyrimidin-4-yl)-4-methylthiazol-2-yl)-3-(3-(trifluoromethyl)phenyl)urea], the IC50 on CDK8/CycC stood at 60 nM. In addition, the GI50 in the assay with HCT-116 is 4320 ± 410 nM; in the assay on MV-4-11, 5710 ± 590 nM.

`CNc1nccc(-c2sc(NC(=O)Nc3cc(C(F)(F)F)ccc3C(F)(F)F)nc2C)n1` [Compound 9, 1-(2,5-Bis(trifluoromethyl)phenyl)-3-(4-methyl-5-(2-(methylamino)-pyrimidin-4-yl)thiazol-2-yl)urea]: on CDK8/CycC, the IC50 turned out to be 41 nM. Besides, the GI50 came out at 519 ± 160 nM with HCT-116 and 526 ± 40 nM in the assay on MV-4-11.

Consider `CNc1nccc(-c2sc(NC(=O)Nc3ccc(C(F)(F)F)c(F)c3)nc2C)n1` [Compound 28, 1-(3-Fluoro-4-(trifluoromethyl)phenyl)-3-(4-methyl-5-(2-(methylamino)-pyrimidin-4-yl)thiazol-2-yl)urea], for which, on CDK8/CycC, the IC50 amounted to 26 nM. Further, the GI50 in the assay with HCT-116 amounted to 772 ± 250 nM; in the assay with MV-4-11 it was 3280 ± 640 nM.

Consider `CNc1nccc(-c2sc(NC(=O)Nc3cccc(OC(F)(F)F)c3)nc2C)n1` [Compound 18, 1-(4-Methyl-5-(2-(methylamino)-pyrimidin-4-yl)thiazol-2-yl)-3-(3-(trifluoromethoxy)phenyl)urea], for which, on CDK8/CycC, the IC50 worked out at 25 nM. Also, the values for the concentration for 50% growth inhibition (GI50) in the assay with HCT-116 and in the assay with MV-4-11 were 4290 ± 523 nM and 5000 ± 630 nM, respectively.

For the compound `CNc1nccc(-c2sc(NC(=O)Nc3ccc(CN4CCOCC4)c(Cl)c3)nc2C)n1` [Compound 31, 1-(3-Chloro-4-(morpholinomethyl)phenyl)-3-(4-methyl-5-(2-(methylamino)-pyrimidin-4-yl)thiazol-2-yl)urea], at CDK8/CycC, the IC50 was found to be 22 nM. The GI50 was 6830 ± 1010 nM with HCT-116 and 945 ± 50 nM in the assay on MV-4-11.

Turning to `CNc1nccc(-c2sc(NC(=O)Nc3ccc(CN4CCN(C)CC4)c(C(F)(F)F)c3)nc2C)n1` [Compound 32, 1-(4-Methyl-5-(2-(methylamino)-pyrimidin-4-yl)thiazol-2-yl)-3-(4-((4-methylpiperazin-1-yl)methyl)-3-(trifluoromethyl)phenyl)urea], on CDK8/CycC, the IC50 came out at 12 nM. Also, the GI50 in the assay on HCT-116 is 366 ± 90 nM; with MV-4-11, < 1 nM.

In the case of `CNc1nccc(-c2sc(NC(=O)Nc3ccc(C)c(Cl)c3)nc2C)n1` [Compound 29, 1-(3-Chloro-4-methylphenyl)-3-(4-methyl-5-(2-(methylamino)-pyrimidin-4-yl)thiazol-2-yl)urea], the IC50 on CDK8/CycC was determined as 13 nM. In addition, the figures for the GI50 with HCT-116 and in the assay on MV-4-11 were 7770 ± 430 nM and 2160 ± 1170 nM, respectively.

Turning to `CNc1nccc(-c2sc(NC(=O)Nc3cccc(Cl)c3)nc2C)n1` [Compound 11, 1-(3-Chlorophenyl)-3-(4-methyl-5-(2-(methylamino)pyrimidin-4-yl)thiazol-2-yl)urea], the IC50 at CDK8/CycC came to 33 nM. Also, the figures for the GI50 in the assay with HCT-116 and with MV-4-11 were 693 ± 30 nM and 1480 ± 1320 nM, respectively.

On to `CNc1nccc(-c2sc(NC(=O)Nc3ccc(Cl)cc3)nc2C)n1` [Compound 43], for which the IC50 on CDK8/CycC is 9 nM. Besides, the figures for the GI50 with HCT-116 and in the assay with MV-4-11 were 5960 ± 440 nM and 1520 ± 800 nM, respectively.

For `CNc1nccc(-c2sc(NC(=O)Nc3cccc(OC(F)F)c3)nc2C)n1` [Compound 20, 1-(3-(Difluoromethoxy)phenyl)-3-(4-methyl-5-(2-(methylamino)-pyrimidin-4-yl)thiazol-2-yl)urea], the IC50 at CDK8/CycC is 6 nM. Moreover, the GI50 in the assay on HCT-116 was found to be 4530 ± 980 nM; in the assay with MV-4-11, 939 ± 60 nM.

In the case of `CNc1nccc(-c2sc(NC(=O)Nc3cccc(SC(F)(F)F)c3)nc2C)n1` [Compound 22, 1-(4-Methyl-5-(2-(methylamino)-pyrimidin-4-yl)thiazol-2-yl)-3-(3-((trifluoromethyl)thio)phenyl)urea], the IC50 at CDK8/CycC was found to be 20 nM. Moreover, the GI50 in the assay with HCT-116 worked out at 4310 ± 750 nM; in the assay with MV-4-11 it was 4630 ± 1560 nM.

With `Cc1ccc(NC(=O)Nc2nc(C)c(-c3ccnc(N(C)C)n3)s2)cc1Cl` [Compound 48, 1-(3-Chloro-4-methylphenyl)-3-(5-(2-(dimethylamino)pyrimidin-4-yl)-4-methylthiazol-2-yl)urea], the IC50 on CDK8/CycC is 46 nM. The figures for the GI50 in the assay on HCT-116 and in the assay with MV-4-11 were 8340 ± 600 nM and 5910 ± 180 nM, respectively.

With `CNc1nccc(-c2sc(NC(=O)Nc3cccc([N+](=O)[O-])c3)nc2C)n1` [Compound 14, 1-(4-Methyl-5-(2-(methylamino)pyrimidin-4-yl)thiazol-2-yl)-3-(3-nitrophenyl)urea], the IC50 on CDK8/CycC came to 10 nM. For the same compound, the GI50 amounted to 5080 ± 820 nM with HCT-116 and 585 ± 30 nM in the assay with MV-4-11.

One may read the IC50 as the concentration at which inhibition is half-maximal. As a reminder, the GI50 is the concentration at which growth is held to half of that of the control.
